Earlier results, collected in patent US20040048853A1, “Compounds, compositions, and methods” (priority 2002, published 2004).

Test system: A549 cells

| GI50 [nM] | Structure (SMILES) |
| --- | --- |
| 1000 | O=c1[nH]cc(F)c(=O)[nH]1 [5-fluorouracil] |
| 63 | COc1cccc2c1C(=O)c1c(O)c3c(c(O)c1C2=O)C[C@@](O)(C(=O)CO)C[C@@H]3O[C@H]1C[C@H](N)[C@H](O)[C@H](C)O1 [doxorubicin] |
| 500000 | NC(=O)NO [hydroxyurea] |
| 4 | CC(=O)O[C@H]1C(=O)[C@@]2(C)[C@H]([C@H](OC(=O)c3ccccc3)[C@]3(O)C[C@H](OC(=O)[C@H](O)[C@@H](NC(=O)c4ccccc4)c4ccccc4)C(C)=C1C3(C)C)[C@]1(OC(C)=O)CO[C@@H]1C[C@@H]2O [paclitaxel] |
